Experimental data taken from article PMC9784828, “Antimicrobial Activity of Peptide-Coupled Antisense Peptide Nucleic Acids in Streptococcus pneumoniae” (Microbiology Spectrum, 2022).

Assays:
gyrA mRNA = test: RT-qPCR, relative expression of gyrA; format: cell-based, Streptococcus pneumoniae; conditions: TIGR4; 7.5 μM CPP-anti-gyrA PNA; 6 h; normalised to 5S rRNA; 2^–ΔΔCT; n = 3
Method: We investigated the influence of treatment with CPP-conjugated antisense PNAs on the amount of target gene mRNA in S. pneumoniae using reverse transcription-quantitative PCR (RT-qPCR) (Fig. 3). S. pneumoniae strain TIGR4 was treated with a sublethal dose (log CFU reduction of <2) of CPP-PNA conjugates. Transcript abundance of the 5S rRNA gene was used for normalization ([27]). Target gene mRNA levels in mock-treated bacteria served as controls. Treatment with 7.5 μM CPP-anti-gyrA PNAs and 10 μM CPP-anti-rpoB PNAs led to significant reductions in the respective target gene transcripts compared to the untreated control sample (Fig. 3).
For RNA isolation, 450 μL bacterial suspension (10^5 CFU/mL in BHI) was prepared for each experimental condition, treated with CPP-PNA conjugates as indicated, and incubated in a 2-mL reaction tube for 6 h at 37°C and 7 rpm (Rotor SB3; Stuart, Staffordshire, United Kingdom). Subsequently, five samples per condition were pooled. […]
cDNA synthesis was performed using the Superscript First-Strand Synthesis system for RT-qPCR (Invitrogen, Thermo Fisher Scientific, Darmstadt, Germany). Quantitative PCR amplification was conducted with SYBR Green (Thermo Fisher Scientific) using the LightCycler 480 real-time PCR system (Roche Diagnostics GmbH, Mannheim, Germany). […] Relative expression was calculated using the 2^–ΔΔ^CT method ([27]). […]

[1] = test system: Detroit 562 cells infected with S. pneumoniae TIGR4; test: Cell-based infection model, bacterial CFU; set-up: species or system Streptococcus pneumoniae; conditions: 20 μM CPP-PNA; MOI 5; 3 h at 37°C; n = 3
Method: Detroit 562 human pharyngeal epithelial cells were infected with S. pneumoniae TIGR4 at a multiplicity of infection (MOI) of 5. Cells were treated with 20 μM (RXR)4XB-anti-gyrA PNA or scrambled control PNA, respectively. As a positive control, 1 μg levofloxacin, corresponding to 3× MIC, was added. Following incubation for 3 h at 37°C, bacterial CFU counts were determined for CPP-antisense PNA-treated samples and compared to those in nontreated samples and in samples containing scrambled control PNAs (Fig. 4A). Treatment with (RXR)4XB-anti-gyrA caused a log CFU reduction of 1. Addition of levofloxacin led to a log CFU reduction of 2.
The human pharynx carcinoma epithelial cell line Detroit 562 (ATCC CCL138) was cultivated in Dulbecco’s modified Eagle medium (DMEM)/F12 (1:1) (Thermo Fisher Scientific, Schwerte, Germany) supplemented with 10% fetal bovine serum at 37°C and 5% CO2. Confluent Detroit 562 cells were infected with S. pneumoniae TIGR4 at an MOI of 5. Cultures were treated with 20 μM CPP-PNAs or 1 μg levofloxacin, respectively, and incubated for 3 h at 37°C, 5% CO2. After incubation, the supernatant was collected. Adherent cells were detached with Accutase solution (Merck KGaA, Darmstadt, Germany), collected by centrifugation for 10 min at 4,000 × g, and combined with the supernatant. Cells were pelleted by centrifugation, washed twice with PBS, and suspended in PBS. CFU/well was determined following serial dilution and plating on Todd Hewitt Broth, supplemented with Yeast, (THY) agar plates.

RXRRXRRXRRXRXB-eg-tgcattaata [(RXR)4XB-anti-gyrA PNA, (RXR)4XB peptide coupled to antisense PNA against gyrA]
gyrA mRNA level relative to mock-treated control (gyrA mRNA): 45% | log CFU reduction in infected Detroit 562 cells [1]: 1
